In PubChem BioAssay (NCI):
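Five compound concentrations were applied to cells in 96-well plates for 48 hours; endpoints were derived by simple linear interpolation of the resulting dose-response curve. TGI denotes the concentration required for complete inhibition of growth.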

Experiments:
Experiment in all cases: growth of human tumour cells (NCI), 48 h
CAKI-1 renal = system: CAKI-1 renal
NCI-H460 lung = system: NCI-H460 lung
SNB-75 CNS = system: SNB-75 CNS
SF-268 CNS = system: SF-268 CNS
HOP-92 NSCLC = system: HOP-92 NSCLC
SK-OV-3 ovarian = system: SK-OV-3 ovarian
IGROV1 ovarian = system: IGROV1 ovarian
K-562 leukemia = system: K-562 leukemia
RPMI-8226 leukemia = system: RPMI-8226 leukemia
HOP-62 NSCLC = system: HOP-62 NSCLC
HCT-15 colon = system: HCT-15 colon
NCI-H23 lung = system: NCI-H23 lung
U251 CNS = system: U251 CNS
EKVX NSCLC = system: EKVX NSCLC
SF-539 CNS = system: SF-539 CNS
MDA-MB-231 breast = system: MDA-MB-231 breast
ACHN renal = system: ACHN renal
NCI-H226 lung = system: NCI-H226 lung
MALME-3M melanoma = system: MALME-3M melanoma
COLO 205 colon = system: COLO 205 colon
MDA-MB-435 = system: MDA-MB-435
MCF7 breast = system: MCF7 breast
MDA-N = system: MDA-N
786-0 renal = system: 786-0 renal
LOX IMVI melanoma = system: LOX IMVI melanoma
HT29 colon = system: HT29 colon
OVCAR-3 ovarian = system: OVCAR-3 ovarian
M14 melanoma = system: M14 melanoma
SK-MEL-5 melanoma = system: SK-MEL-5 melanoma
HL-60(TB) leukemia = system: HL-60(TB) leukemia
PC-3 prostate = system: PC-3 prostate
BT-549 breast = system: BT-549 breast
RXF 393 renal = system: RXF 393 renal
A549 NSCLC = system: A549 NSCLC
T-47D breast = system: T-47D breast
SN12C renal = system: SN12C renal
UACC-257 melanoma = system: UACC-257 melanoma
HCT-116 colon = system: HCT-116 colon
SF-295 CNS = system: SF-295 CNS
OVCAR-4 ovarian = system: OVCAR-4 ovarian
A498 renal = system: A498 renal
SNB-19 CNS = system: SNB-19 CNS
SW-620 colon = system: SW-620 colon
NCI/ADR-RES ovarian = system: NCI/ADR-RES ovarian
UO-31 renal = system: UO-31 renal
OVCAR-8 ovarian = system: OVCAR-8 ovarian
HS 578T breast = system: HS 578T breast
UACC-62 melanoma = system: UACC-62 melanoma
KM12 colon = system: KM12 colon
DU-145 prostate = system: DU-145 prostate
CCRF-CEM leukemia = system: CCRF-CEM leukemia
NCI-H522 lung = system: NCI-H522 lung
HCC-2998 colon = system: HCC-2998 colon
SK-MEL-28 melanoma = system: SK-MEL-28 melanoma
OVCAR-5 ovarian = system: OVCAR-5 ovarian
MOLT-4 leukemia = system: MOLT-4 leukemia
TK-10 renal = system: TK-10 renal
SR leukemia = system: SR leukemia
SK-MEL-2 melanoma = system: SK-MEL-2 melanoma

COC(C)(C)C(O)C(O)C[C@H](C)C1CC=C2C1(C)CCC1[C@@]3(C)CCC(OC(C)=O)C(C)(C)C3CC(OC3OC(COC(C)=O)C(O)C(O)C3O)[C@@]21C (some centres undefined)
TGI (CAKI-1 renal): > 10 µM | TGI (NCI-H460 lung): > 10 µM | TGI (SNB-75 CNS): > 10 µM | TGI (SF-268 CNS): > 10 µM | TGI (HOP-92 NSCLC): > 10 µM | TGI (SK-OV-3 ovarian): > 10 µM | TGI (IGROV1 ovarian): 8.04 µM | TGI (K-562 leukemia): > 10 µM | TGI (RPMI-8226 leukemia): 5.14 µM | TGI (HOP-62 NSCLC): > 10 µM | TGI (HCT-15 colon): > 10 µM | TGI (NCI-H23 lung): > 10 µM | TGI (U251 CNS): > 10 µM | TGI (EKVX NSCLC): > 10 µM | TGI (SF-539 CNS): > 10 µM | TGI (MDA-MB-231 breast): 9.73 µM | TGI (ACHN renal): > 10 µM | TGI (NCI-H226 lung): > 10 µM | TGI (MALME-3M melanoma): > 10 µM | TGI (COLO 205 colon): 3.89 µM | TGI (MDA-MB-435): > 10 µM | TGI (MCF7 breast): > 10 µM | TGI (MDA-N): > 10 µM | TGI (786-0 renal): > 10 µM | TGI (LOX IMVI melanoma): 6.55 µM | TGI (HT29 colon): 9.01 µM | TGI (OVCAR-3 ovarian): 9.79 µM | TGI (M14 melanoma): > 10 µM | TGI (SK-MEL-5 melanoma): 4.38 µM | TGI (HL-60(TB) leukemia): 5.54 µM | TGI (PC-3 prostate): > 10 µM | TGI (BT-549 breast): > 10 µM | TGI (RXF 393 renal): > 10 µM | TGI (A549 NSCLC): > 10 µM | TGI (T-47D breast): 8.73 µM | TGI (SN12C renal): > 10 µM | TGI (UACC-257 melanoma): > 10 µM | TGI (HCT-116 colon): > 10 µM | TGI (SF-295 CNS): > 10 µM | TGI (OVCAR-4 ovarian): > 10 µM | TGI (A498 renal): 8.68 µM | TGI (SNB-19 CNS): > 10 µM | TGI (SW-620 colon): > 10 µM | TGI (NCI/ADR-RES ovarian): > 10 µM | TGI (UO-31 renal): 2.07 µM | TGI (OVCAR-8 ovarian): > 10 µM | TGI (HS 578T breast): > 10 µM | TGI (UACC-62 melanoma): > 10 µM | TGI (KM12 colon): > 10 µM | TGI (DU-145 prostate): > 10 µM | TGI (CCRF-CEM leukemia): 7.96 µM | TGI (NCI-H522 lung): 8.7 µM | TGI (HCC-2998 colon): 6.15 µM | TGI (SK-MEL-28 melanoma): > 10 µM | TGI (OVCAR-5 ovarian): > 10 µM | TGI (MOLT-4 leukemia): 4.13 µM | TGI (TK-10 renal): > 10 µM

CC(C)C1C(=O)N2CCCC2C2(O)OC(NC(=O)C3C=C4c5cccc6[nH]cc(c56)CC4N(C)C3)(C(C)C)C(=O)N12 (centres undefined)
TGI (CAKI-1 renal): 37.9 µM | TGI (NCI-H460 lung): 39.2 µM | TGI (SNB-75 CNS): 76.7 µM | TGI (SF-268 CNS): > 100 µM | TGI (HOP-92 NSCLC): 30.1 µM | TGI (SR leukemia): 68.3 µM | TGI (IGROV1 ovarian): 36.5 µM | TGI (RPMI-8226 leukemia): 47.9 µM | TGI (HOP-62 NSCLC): > 100 µM | TGI (HCT-15 colon): 54.9 µM | TGI (NCI-H23 lung): > 100 µM | TGI (U251 CNS): 70.3 µM | TGI (EKVX NSCLC): 73.1 µM | TGI (SF-539 CNS): 52.4 µM | TGI (MDA-MB-231 breast): 34.3 µM | TGI (ACHN renal): 43.4 µM | TGI (COLO 205 colon): 51.5 µM | TGI (MDA-MB-435): > 100 µM | TGI (MCF7 breast): > 100 µM | TGI (MDA-N): 67.5 µM | TGI (786-0 renal): 33 µM | TGI (LOX IMVI melanoma): 34.8 µM | TGI (HT29 colon): 37.5 µM | TGI (OVCAR-3 ovarian): 80.6 µM | TGI (M14 melanoma): 75.5 µM | TGI (SK-MEL-5 melanoma): 57.9 µM | TGI (HL-60(TB) leukemia): 48.5 µM | TGI (PC-3 prostate): 87.3 µM | TGI (BT-549 breast): 88.6 µM | TGI (SK-MEL-2 melanoma): 42.4 µM | TGI (A549 NSCLC): 67.3 µM | TGI (T-47D breast): > 100 µM | TGI (SN12C renal): > 100 µM | TGI (UACC-257 melanoma): 76.2 µM | TGI (HCT-116 colon): 33.5 µM | TGI (SF-295 CNS): 64.4 µM | TGI (OVCAR-4 ovarian): 47.9 µM | TGI (SNB-19 CNS): > 100 µM | TGI (SW-620 colon): > 100 µM | TGI (NCI/ADR-RES ovarian): 57.5 µM | TGI (UO-31 renal): 37 µM | TGI (OVCAR-8 ovarian): 52.9 µM | TGI (HS 578T breast): > 100 µM | TGI (UACC-62 melanoma): 55.7 µM | TGI (KM12 colon): 47.7 µM | TGI (DU-145 prostate): > 100 µM | TGI (CCRF-CEM leukemia): 91.3 µM | TGI (NCI-H522 lung): 74.5 µM | TGI (HCC-2998 colon): 42.9 µM | TGI (SK-MEL-28 melanoma): > 100 µM | TGI (OVCAR-5 ovarian): 29.7 µM | TGI (MOLT-4 leukemia): 53.8 µM | TGI (TK-10 renal): 68.6 µM

O=C1CCC(=O)N1CNc1ccc2c(c1)Sc1ccccc1O2
TGI (CAKI-1 renal): > 100 µM | TGI (SF-268 CNS): > 100 µM | TGI (HOP-92 NSCLC): 56.7 µM | TGI (IGROV1 ovarian): > 100 µM | TGI (K-562 leukemia): > 100 µM | TGI (RPMI-8226 leukemia): > 100 µM | TGI (HOP-62 NSCLC): > 100 µM | TGI (HCT-15 colon): > 100 µM | TGI (NCI-H23 lung): > 100 µM | TGI (U251 CNS): > 100 µM | TGI (EKVX NSCLC): 75.4 µM | TGI (SF-539 CNS): 34.7 µM | TGI (MDA-MB-231 breast): > 100 µM | TGI (ACHN renal): > 100 µM | TGI (NCI-H226 lung): 63.1 µM | TGI (MALME-3M melanoma): > 100 µM | TGI (COLO 205 colon): 35.3 µM | TGI (MDA-MB-435): > 100 µM | TGI (MCF7 breast): > 100 µM | TGI (MDA-N): > 100 µM | TGI (786-0 renal): 58.9 µM | TGI (LOX IMVI melanoma): 68.9 µM | TGI (HT29 colon): 54.7 µM | TGI (OVCAR-3 ovarian): 75 µM | TGI (M14 melanoma): 99.2 µM | TGI (SK-MEL-5 melanoma): 70.1 µM | TGI (HL-60(TB) leukemia): 54.8 µM | TGI (PC-3 prostate): > 100 µM | TGI (BT-549 breast): 93.4 µM | TGI (SK-MEL-2 melanoma): 40.6 µM | TGI (RXF 393 renal): 79.9 µM | TGI (A549 NSCLC): > 100 µM | TGI (T-47D breast): > 100 µM | TGI (SN12C renal): 76.1 µM | TGI (UACC-257 melanoma): > 100 µM | TGI (HCT-116 colon): 45.7 µM | TGI (SF-295 CNS): > 100 µM | TGI (OVCAR-4 ovarian): > 100 µM | TGI (A498 renal): > 100 µM | TGI (SNB-19 CNS): > 100 µM | TGI (SW-620 colon): > 100 µM | TGI (NCI/ADR-RES ovarian): > 100 µM | TGI (UO-31 renal): 91.5 µM | TGI (OVCAR-8 ovarian): 68.5 µM | TGI (HS 578T breast): > 100 µM | TGI (UACC-62 melanoma): > 100 µM | TGI (KM12 colon): > 100 µM | TGI (DU-145 prostate): > 100 µM | TGI (CCRF-CEM leukemia): > 100 µM | TGI (NCI-H522 lung): 53.6 µM | TGI (SK-MEL-28 melanoma): > 100 µM | TGI (OVCAR-5 ovarian): > 100 µM | TGI (MOLT-4 leukemia): > 100 µM | TGI (TK-10 renal): > 100 µM
